Laboratory results: US20250049026A1, “BIOCIDAL COMPOSITIONS WITH HYDRONIUM ION SOURCES FOR BIOFILM CONTROL” (ECOLAB USA INC., priority 2020, published 2025)
Marks after values point to notes of the source that are not given here.

System: Pseudomonas aeruginosa (ATCC 15442) biofilm
Assay: Efficacy against biofilm, CDC Biofilm Reactor and Single Tube Method (ASTM E3161-18, ASTM E2871-19)
Assay type: cell-based
Details: for Average Log Reduction: 10 min exposure
Method: The efficacy against biofilm was performed as described in the standard test methods ASTM E3161-18 (Standard Practice for Preparing a Pseudomonas aeruginosa or Staphylococcus aureus Biofilm using the CDC Biofilm Reactor) and ASTM E2871-19 (Standard Test Method for Determining Disinfectant Efficacy Against Biofilm Grown in the CDC Biofilm Reactor Using the Single Tube Method). A Pseudomonas aeruginosa (ATCC 15442) biofilm was the organism used for determination of composition efficacy against biofilm on hard non-porous surfaces. Biofilm for composition efficacy was generated as outlined in ASTM E3161-18. A 10 uL sample of a thawed frozen stock culture was used to inoculate 10 mL of sterile 100 mg/L Tryptic Soy Broth (TSB) which was then allowed to incubate for 24±2 hours at 35±2° C. Following growth, a 1 mL sample of this initial culture was used to inoculate a CDC Biofilm Reactor containing borosilicate glass coupons and 500 mL of sterile 300 mg/L TSB. The reactor system was allowed to incubate at room temperature (i.e. 21±2° C.) for 24±2 hours with a baffle rotational speed of 125±5 RPM under Batch Phase as directed in ASTM E3161-18. Following Batch Phase growth, Continuous Flow Phase growth was initiated by continuous pumping of 100 mg/L TSB into the reactor system at an appropriate flow rate to ensure the test organism residence time of 30±2 minutes. The reactor system was allowed to incubate at room temperature (i.e. 21±2° C.) for 24±2 hours with a baffle rotational speed of 125±5 RPM under Continuous Flow Phase as directed in ASTM E3161-18. Following completion of the growth, biofilm test carriers were removed from the CDC Biofilm Reactor, rinsed in sterile buffer to remove any non-adhered cells and individual carriers were placed into sterile 50 mL conical tubes for composition treatment. Determination of compositional efficacy against Pseudomonas aeruginosa biofilm was performed as outlined in ASTM E2871-19. A 4 mL sample of each composition (or sterile buffer for control carriers) was pipetted into each corresponding tube containing a test carrier. Triplicate test carriers were analyzed per composition or control. Test and control carriers were allowed to expose for 10 minutes at room temperature (i.e. 21±2° C.). Following exposure, each carrier was appropriately neutralized with 36 mL of Neutralizing Broth. Neutralized carriers were vortex mixed and sonicated to remove/disaggregate the biofilm from the carrier surface as outlined in ASTM E2871-19. Disaggregated biofilm samples were serially diluted in sterile buffer and spread plated onto appropriate agar for determination of plate counts. Log reductions for each composition were determined by comparing the calculated average Log10 from the set of recovered control carriers to the calculated average Log10 from each set of recovered composition carriers. In addition to carrier control determination, an appropriate Neutralization Confirmation Control was performed for each composition to ensure that the Neutralizing Broth chosen appropriately neutralized the test solution.
The various combinations of biocides and hydronium ion (all from sulfuric acid) were evaluated at the use concentration (ppm biocide) pH and moles of hydronium in the use concentration as set forth in Table 2.

[1] = active 100 ppm, pH 2.15, hydronium ion 0.0071 M (sulfuric acid)
[2] = active 100 ppm, pH 2.50, hydronium ion 0.0032 M (sulfuric acid)
[3] = active 100 ppm, pH 3.00, hydronium ion 0.001 M (sulfuric acid)

Question: Which “Average Log Reduction” value [1] does the source give for `CCCCCCCC(=O)O` [Octanoic acid] here?
Answer: Its value is 4.28 log.

Question: And the “Average Log Reduction” value [2]?
Answer: The value was 7.59 log.

Question: What about the “Average Log Reduction” value [3] of the same compound?
Answer: The value was 2.19 log.

Question: What about the “Average Log Reduction” value (active 100 ppm, pH 6.43, hydronium ion 0.0000 M) of the same compound?
Answer: Its value is 2.07 log.

Question: And the “Average Log Reduction” value (active 200 ppm, pH 6.43, hydronium ion 0.0000 M)?
Answer: Its value is 2.15 log.

Question: And the “Average Log Reduction” value (active 300 ppm, pH 6.43, hydronium ion 0.0000 M)?
Answer: The value was 2.15 log.

Question: What about the “Average Log Reduction” value (active 400 ppm, pH 6.43, hydronium ion 0.0000 M) of the same compound?
Answer: Its value is 2.15 log.

Question: `CC(=O)OO` [POAA, Peroxyacetic acid] was tested. Which micro efficacy (220 ppm, without the hydronium ion) did it give?
Answer: The micro efficacy was “fails to provide sufficient micro efficacy”.

Question: And the “Average Log Reduction” value (active 110 ppm, pH 2.29, hydronium ion 0.0051 M (sulfuric acid))?
Answer: Its value is 5.94 log.

Question: What about the “Average Log Reduction” value (active 220 ppm, pH 2.00, hydronium ion 0.01 M (sulfuric acid)) of the same compound?
Answer: Its value is 4.45* log.

Question: What about the “Average Log Reduction” value (active 220 ppm, pH 2.29, hydronium ion 0.0051 M (sulfuric acid)) of the same compound?
Answer: Its value is 8.70 log.

Question: What about the “Average Log Reduction” value (active 220 ppm, pH 2.30, hydronium ion 0.0050 M (sulfuric acid)) of the same compound?
Answer: The value was 2.42 log.

Question: What about the “Average Log Reduction” value (active 220 ppm, pH 2.45, hydronium ion 0.0035 M (sulfuric acid)) of the same compound?
Answer: The value was 2.11 log.

Question: And the “Average Log Reduction” value (active 220 ppm, pH 2.50, hydronium ion 0.0032 M (sulfuric acid))?
Answer: The value was 2.15 log.

Question: And the “Average Log Reduction” value (active 220 ppm, pH 2.98, hydronium ion 0.001 M (sulfuric acid))?
Answer: Its value is 2.15 log.

Question: What about the “Average Log Reduction” value (active 220 ppm, pH 3.46, hydronium ion 0.00035 M (sulfuric acid)) of the same compound?
Answer: Its value is 2.15 log.

Question: And the “Average Log Reduction” value (active 220 ppm, pH 4.20, hydronium ion 0.000063 M [No hydronium ion source], room temperature)?
Answer: Its value is 2.15 log.

Question: And the “Average Log Reduction” value (active 320 ppm, pH 3.45, hydronium ion 0.00035 M (sulfuric acid))?
Answer: The value was 2.41 log.

Question: And the “Average Log Reduction” value (active 420 ppm, pH 3.46, hydronium ion 0.00035 M (sulfuric acid))?
Answer: The value was 2.41 log.

Question: And the “Average Log Reduction” value (active 520 ppm, pH 3.44, hydronium ion 0.00035 M (sulfuric acid))?
Answer: Its value is 2.41 log.

Question: With `CCCCCCCC(=O)OO` [POOA, Peroxyoctanoic acid] as the compound, how does the “Average Log Reduction” value [1] read?
Answer: Its value is 8.43 log.

Question: And the “Average Log Reduction” value [2]?
Answer: The value was 7.24 log.

Question: And the “Average Log Reduction” value [3]?
Answer: The value was 2.19 log.

Question: And the “Average Log Reduction” value (active 100 ppm, pH 5.45, hydronium ion 0.0000 M)?
Answer: Its value is 1.95 log.

Question: How did the “Average Log Reduction” value (active 1000 ppm, pH 2.15, hydronium ion 0.0071 M (sulfuric acid)) turn out when Linear alkylbenzene sulfonate [LAS] was run?
Answer: The value was 5.74 log.

Question: What about the “Average Log Reduction” value (active 1000 ppm, pH 3.02, hydronium ion 0.00095 M (sulfuric acid)) of the same compound?
Answer: Its value is 2.19 log.

Question: What about the “Average Log Reduction” value (active 1000 ppm, pH 7.48, hydronium ion 0.0000 M) of the same compound?
Answer: The value was 2.07 log.

Question: What about the “Average Log Reduction” value (active 2000 ppm, pH 7.48, hydronium ion 0.0000 M) of the same compound?
Answer: The value was 2.41 log.

Question: What about the “Average Log Reduction” value (active 3000 ppm, pH 7.46, hydronium ion 0.0000 M) of the same compound?
Answer: The value was 2.41 log.

Question: And the “Average Log Reduction” value (active 4000 ppm, pH 7.48, hydronium ion 0.0000 M)?
Answer: The value was 2.41 log.
